The text below walks through data of publication PMC8877233, “The Hydrophobicity and Antifungal Potentiation of Burkholdine Analogues” (Molecules, 2022).

Starred links: 1 amine or outer side, 2 acyl side, 3 side chain; linkers in the order of their positions; H or OH if unused. Positions of bridges follow the written chain, without caps; N, C: chain ends. Non-standard residues stand in square brackets, D forms with d. Residues, ends and D or L forms follow the SMILES beside them. X3 = CCCCCCCCCCC(=O)N[C@H](C(=O)NC[C@@H](CC(=O)[*:1])N[*:2])[C@@H](C)O; X2 = CCCCCCCCNC(=O)[C@H](O)[C@@H](O)C(=O)NC[C@@H](CC(=O)[*:1])N[*:2] A value given as a limit tells only on which side of the number the result lay.

For one data set, the system named is Candida albicans. The conditions noted are these: cited from earlier work. From the text:
The burkholdines (Bks) are a family of 25-membered cyclic lipopeptides composed of eight amino acids arranged in a lactam ring bearing a lipophilic side chain, which were first isolated from the proteobacteria Burkholderia ambifaria 2.2N by Schmidt in 2010 [1, 2, 3, 4]. […] The mechanism of this activity is thought to entail the inhibition of fungal β-glucan synthase, as is the case for the candine anti ...

In data set [1] the test system is S. cerevisiae. Put plainly: Potentiation assay with G418. The following applies: for potentiation of the effect of G418: S. cerevisiae, peptide dose 100 µg/mL, result in words. It is filed as cell-based. As to the method:
(§1) Two antibiotics with different mechanisms of action can have a synergistic effect, together exerting an antifungal activity higher than the sum of their individual activities. Accordingly, the potentiation of the antifungal effect of G418 (Geneticin), an aminoglycosyl-type antibiotic that inhibits protein biosynthesis by binding to the ribosome 70S and 80S subunits, and zeocin (phleomucin D1), a glycopeptide antibiotic and DNA intercalator, by cyclic peptides (3a)–(8) was evaluated. Although the relatively high PSA and negative logP values of Bk analogues (3a)–(8) are not conductive to cell penetration, there was the possibility that their fatty side chains have an affinity for cell surfaces. […] The mechanism of action is not clear, but it is possible that the interaction of the cyclic peptides (3a)–(8) with the cell wall increases its susceptibility to penetration by G418.
The prepared test bacteria (50 µL) were placed in well A1–A12 of a 96-well plate. G418 (200 mg/mL, 108321-42-2, Nacalai tesque, Japan) in H2O, then medium […] was added to A1, pipetting was performed, and 50 µL was extracted from A1 and placed in A2. This operation was repeated until A11, and 50 µL extracted from A11 was discarded. After 30 min, Bk analogue (200 μg/mL) in medium […] was added to each solution (final concentration = 100 μg/mL). The well plate was closed and incubated at 30 °C. After 24 h, the MIC and potentiation values were evaluated.

The test system of data set [2] is S. cerevisiae (ATCC204504). The class given is cell-based. The conditions noted are these: ATCC204504, 24 h. As to the method:
Bacto yeast extract (0.63 g, 70161, Fluka, Barcelona, Spain), peptone (1.00 g, 26421, Mikuni, Japan), and glucose (1.00 g, 16806-25, Nacalai tesque, Japan) were added to H2O (50 mL) at room temperature and the mixture was heated to 60 °C. After 30 min, the mixture was sterilized by heating in an autoclave at 121 °C for 20 min.
DMSO (8 µL, 13406-55, Nacalai tesque, Japan) was added to YPD medium (750 µL). The test fungus culture solution (3 µL) was added to this solution (1.5 mL).
The inhibitor (each 1.0 mg; 3a–h, 4a–b, 5a–b, 6a–b, 7, 8) was dissolved in DMSO (40 µL).
The prepared test bacteria (50 µL) were placed in A1–A12 of a 96-well plate. Bk analogue (50 µL) was added to A1, pipetting was performed, and then 50 µL was extracted from A1 and placed in A2. This operation was repeated until A11, and 50 µL extracted from A11 was discarded. The well plate was closed and incubated at 30 °C. After 24 h, the MIC values were evaluated.

Data set [3] is described as follows: RP-HPLC retention time as measure of hydrophilicity/hydrophobicity. It is filed as physicochemical. The conditions noted are these: chromatographic, Cosmosil 5C18-AR-II 4.6 x 150 mm, linear gradient 30–70% MeCN/H2O (0.1% TFA) for 30 min, 1 mL/min, UV 220 nm. How it is done: […] In all cases, the retention times of the (S)-Dab-containing peptides were shorter than those of the (R)-Dab-containing peptides, which were similar to those bearing L-Orn. The retention times of the cyclic peptides were shorter for Tat > D-Ser > L-Thr > L-Ser, while peptides bearing the undecanoic acid moiety eluted […] than those bearing the decanoic acid by about 2 min.

The subject of data set [4] is S. cerevisiae. Put plainly: Potentiation assay with zeocin. The class given is cell-based. The conditions noted are these: assays attempted three times. How it is done: as §1
The prepared test bacteria (50 µL) were placed in well A1–A12 of a 96-well plate. G418 (200 mg/mL, 108321-42-2, Nacalai tesque, Japan) in H2O, then medium […] was added to A1, pipetting was performed, and 50 µL was extracted from A1 and placed in A2. This operation was repeated until A11, and 50 µL extracted from A11 was discarded. After 30 min, Bk analogue (200 μg/mL) in medium […] was added to each solution (final concentration = 100 μg/mL). The well plate was closed and incubated at 30 °C. […]

As a reminder, the MIC90 is an inhibitory concentration at the 90% level, which refers to growth in some studies and to a panel of isolates in others. As to micafungin, the MIC90 with Candida albicans is given as 0.015 µg/mL. Regarding caspofungin, in the data set with Candida albicans, the MIC90 is 0.25 µg/mL. As usually defined, the MIC is the smallest concentration in the dilution series that meets the test's criterion for growth inhibition. For `CN[C@@H]1[C@@H](O)[C@@H](O[C@@H]2[C@@H](O)[C@H](O[C@H]3O[C@H]([C@@H](C)O)[C@@H](O)[C@H](O)[C@H]3N)[C@@H](N)C[C@H]2N)OC[C@]1(C)O` [Compound G418, G418, reference compound], in the data set with S. cerevisiae [1] (Saccharomyces cerevisiae, 24 h, read-out: MIC of G418 alone), the MIC was 25000 µg/mL. Consider `CCCCCCCCCCC(=O)N[C@H](C(=O)NC[C@H]1CC(=O)N[C@H](CO)C(=O)N[C@H](Cc2ccc(O)cc2)C(=O)N[C@H](CC(N)=O)C(=O)NCC(=O)N[C@@H](CC(N)=O)C(=O)N[C@@H](CO)C(=O)N[C@@H](CC(N)=O)C(=O)N1)[C@@H](C)O` [Compound 4b, Cyclo-[Undecanoic Acid-Thr-(R)-7-D-Ser-D-Tyr-D-Asn-Gly-Asn-Ser-Asn]] ([dS][dY][dN]GNSN; linker N-C via X3), for which the MIC in data set [2] is above 200 µg/mL. In data set [3], this compound registered a tR of 10.7 min. The “potentiation of the effect of G418” value in the data set with S. cerevisiae [1] is “weak potentiating effects”. `CCCCCCCCNC(=O)[C@H](O)[C@@H](O)C(=O)NC[C@H]1CC(=O)N[C@H](CO)C(=O)N[C@H](Cc2ccc(O)cc2)C(=O)N[C@H](CC(N)=O)C(=O)NCC(=O)N[C@@H](CC(N)=O)C(=O)N[C@@H](CO)C(=O)N[C@@H](CC(N)=O)C(=O)N1` [Compound 5b, Cyclo-[(2R,3R)-2,3-dihydroxy-4-(octylamino)-4-oxobutanoic Acid-(R)-7-D-Ser-D-Tyr-D-Asn-Gly-Asn-Ser-Asn]] ([dS][dY][dN]GNSN; linker N-C via X2): the MIC in data set [2] is above 200 µg/mL. This compound also gave a tR in data set [3] of 6.4 min. In addition, the “potentiation of the effect of G418” value with S. cerevisiae [1] is given as “weak potentiating effects”. As to `Cc1c(N)nc([C@H](CC(N)=O)NC[C@H](N)C(N)=O)nc1C(=O)N[C@H](C(=O)N[C@H](C)[C@@H](O)[C@H](C)C(=O)N[C@H](C(=O)NCCC1=N[C@@H](c2nc(C(=O)NCCCCN=C(N)N)cs2)CS1)[C@@H](C)O)[C@@H](O[C@@H]1O[C@@H](CO)[C@@H](O)[C@H](O)[C@@H]1O[C@H]1O[C@H](CO)[C@@H](O)[C@H](OC(N)=O)[C@@H]1O)c1cnc[nH]1` [zeocin], the “MIC of zeocin alone” value in the data set with S. cerevisiae [4] was 3130 µg/mL.
